Measured values taken from PMC12501029, “Discovery of a CNS active GSK3 degrader using orthogonally reactive linker screening” (Nature Communications, 2025).

Tests used:
[1] = Intrinsic clearance (Cli), human liver microsomes; type: in vitro ADME; details: 0.5 µM, scaling factor 40 mg microsomal protein per g liver
Description: (§1) Test compound (0.5 µM) was incubated with female CD1 mouse, male rat Han Wistar and pooled human liver microsomes (Xenotech^TM; 0.5 mg/mL 50 mM potassium phosphate buffer, pH7.4) and the reaction started with addition of excess NADPH (8 mg/mL 50 mM potassium phosphate buffer, pH7.4). Immediately, at time zero, then at 3, 6, 9, 15 and 30 min an aliquot (50 µL) of the incubation mixture was removed and mixed with acetonitrile (100 uL) to stop the reaction. An internal standard was added to all samples, the samples centrifuged to sediment precipitated protein and the plates then sealed prior to UPLC-MSMS analysis (Xevo TQ-S Micro, Waters^TM). XLfit (IDBS, UK) was used to calculate the exponential decay and consequently the rate constant (k) from the ratio of peak area of test compound to internal standard at each timepoint. The rate of intrinsic clearance (CLi) of each test compound was then calculated using the following calculation:1 CLi(mL/min/gliver)=kxVxMicrosomalproteinyield Where V (mL/mg protein) is the incubation volume/mg protein added and microsomal protein yield is taken as 48 mg, 46 mg and 40 mg protein/g liver for mouse, rat and human, respectively. Verapamil (0.5 µM) was used as a positive control to confirm acceptable assay performance.

[2] = Intrinsic clearance (Cli), rat liver microsomes; type: in vitro ADME; details: 0.5 µM, scaling factor 46 mg microsomal protein per g liver
Description: as §1

[3] = Intrinsic clearance (Cli), mouse liver microsomes; type: in vitro ADME; details: 0.5 µM, scaling factor 48 mg microsomal protein per g liver
Description: as §1

[4] = test system: GSK3β Ser9 and GSK3β Tyr216 phosphorylation; test: GSK3β phosphorylation (Ser9, Tyr216) immunoblot in HEK293 cells; type: cell-based, human; details: for impact on GSK3β Ser9 or GSK3β Tyr216 phosphorylation prior to degradation: 10 nM 24, 27, 10 nM and 1 µM 29, 30 min
Description: HEK293, HAP1, HAP1 CRBN KO and SH-SY5Y cells were plated in either 6 cm plates or 6-well plates at varying densities (0.5–0.7 × 10^6 cells per plate or wells), and MEF cells were plated in 10 cm plates (1–1.2 × 10^6 cells per plate) depending on experimental set up in respective culturing condition as described above. Stock solutions of compounds were prepared as 10 mM in DMSO (Sigma–Aldrich). Working dilutions were made up fresh in DMSO and culturing media or differentiation media was refreshed prior to any compound treatments. For mode of action studies, cells were pre-treated with inhibitors for 2 h: 1 µM MG132 (Merck, 474790-5 mg), 1 µM MLN4924 (Merck, 5054770001) or 1 µM GSK3 inhibitor (compound 29), before treating with PROTACs for 2, 4 or 24 h as indicated in figure legends. Cells were washed twice with ice-cold PBS (Gibco), harvested in PBS and pelleted, cells were resuspended in RIPA buffer supplemented with complete EDTA-free protease inhibitor cocktail (Roche,11873580001, 1/10 mL) and phosSTOP (Roche, 04906845001, 1 tablet/10 mL) for 20 min lysis on ice then cleared via centrifugation at 16,000 × g, 4 °C for 20 min. SH-SY5Y cells were lysed in 500 µL ice-cold lysis buffer (25 mM Tris-HCl (pH 7.4), 50 mM NaF, 100 mM NaCl, 1 mM EDTA, 4 mM EGTA, 1% (v/v) Triton-X-100, 0.09% (w/v) sucrose, 10 mM sodium pyrophosphate, 10 mM sodium vanodate, 0.1% (v/v) β-mercaptoethanol, supplemented with complete mini protease inhibitor tablet (Sigma; 1 tablet/ 10 mL buffer)). Lysates were flash frozen, thawed and centrifugated at 16,000 × g, 4 °C for 20 min. Following clearance of lysates, protein concentrations were determined by the BCA assay (Fisher Scientific, 23225) or Bradford assay (Bio-rad). Five to thirty micrograms of protein from lysates were prepared in 4×LDS buffer (Thermo Fisher) and 50 mM dithiothreitol (DTT) denaturated at 95 °C for 5 min. Proteins were separated on NuPAGE 4–12% Bis-Tris gels (Invitrogen) or 4–12% Novex Tris-glycine gels (Invitrogen) in MOPS buffer (Invitrogen) and transferred onto nitrocellulose membranes using an iBlot3 system (Thermo Fisher Scientific) or nitrocellulose membranes (Cytiva) in cold tris-glycine-methanol buffer (25 mM Tris (pH 7.5), 192 mM glycine, 20% (v/v) methanol). Membranes were blocked with either 5% fat-free milk (Marvel) or 1% (w/v) BSA (Sigma) in TBS-T (20 mM Tris (pH 7.5), 150 mM NaCl, 0.1% (v/v) Tween-20 (Sigma)) at room temperature for 30 min, or in the case of SH-SY5Y assays, 1 h, before incubating with primary antibodies overnight at 4 °C on a rocker. […]

[5] = test system: HEK293 cells phosphoproteome; test: Phosphoproteomics in HEK293 cells; type: cell-based, human; design: scale not given here; details: phosphosite abundance difference
Description: IMAC beads were prepared from Ni-NTA (nitrilotriacetic acid) superflow agarose beads. The nickel was stripped with 100 mM EDTA and incubated in an aqueous solution of 10 mM iron (III) chloride (FeCl3). Dried peptide fractions were reconstituted to a concentration of 0.5 μg/μL in 80% ACN/0.1% TFA. Peptide mixtures were enriched for phosphorylated peptides with 5 μL IMAC beads for 30 min with end-to-end rotation.
Enriched IMAC beads were loaded on Empore C18 silica-packed stage tips. Stage tips were equilibrated with acetonitrile followed by 50% ACN/0.1% FA then 1% FA. The beads with enriched peptides were loaded onto C18 stage tips and washed with 80% ACN/0.1% TFA. Phosphorylated peptides were eluted from IMAC beads with 500 mM dibasic sodium phosphate, pH 7.0. These peptides were washed with 1% FA before elution using 50% acetonitrile in 0.1% FA. The peptides were then dried by SpeedVac and stored at −20 °C until mass spectrometry analysis. The dried phosphopeptides were reconstituted in 0.1% formic acid and analyzed on an Orbitrap Ascend mass spectrometer coupled to a Thermo Fisher Scientific Vanquish Neo UHPLC. […] The total run time was set to 155 min. A survey full scan MS (from m/z 350–1500) was acquired in the Orbitrap at a resolution of 120,000 at 200 m/z. The most intense ions with charge state ≥2 were isolated and fragmented using higher collision dissociation (HCD) fragmentation, with 30% normalised collision energy, and detected at a mass resolution of 50,000 at 200 m/z. The isolation window was set at 1.6. The phosphoproteomics raw data were searched using SEQUEST HT search engines with Proteome Discoverer 3.0 (Thermo Fisher Scientific). The following parameters were used for searches: Precursor mass tolerance 10 ppm, fragment mass tolerance 0.02, enzyme: trypsin, […], fixed modification: carbamidomethylation of cysteine residues and TMT of lysine and N-terminal, dynamic modification: oxidation of methionine and phosphorylation of serine, threonine and tyrosine. The data were filtered for 1% PSM and peptide level. A two-tailed t-test with 250 randomisations was performed in Perseus software (v1.6.15.0) to assess statistical significance between groups. The resulting data were visualised as a volcano plot using GraphPad Prism (v10.1.2).

[6] = target: T1, GSK3β-HiBiT (GSK3β-HiBiT KI HEK293 cells) (Homo sapiens, UniProt P49841); test: HiBiT lytic degradation assay / high-throughput screen, 24 h; type: cell-based; details: 24 h treatment
T1 construct: we generated endogenously tagged GSK3β-HiBiT knock-in (KI) HEK293 cells; endogenous in cells; host or cells: GSK3β-HiBiT knock-in HEK293 cells (CRISPR/Cas9, single-cell clone)
Description: Crude compounds were assumed to be 10 mM concentration in DMSO and after generating libraries directly used in biological tests in degradation screens. Stock solutions were serially diluted into white bottom opaque 384-well plates (Perkin Elmer) using Echo500 (Labcyte) and DMSO was backfilled to maintain same DMSO content in each well for all concentrations. […] HiBiT lytic assay buffer (Promega) prepared according to the manufacturer’s instructions and added onto each well using Multidrop^TM Combi reagent dispenser. Luminescence signal was measured on PheraStar plate reader (BMG) and obtained data normalised to DMSO conditions using Excel and further analysed using GraphPad Prism (v10.1.2) and degradation curves were generated using 4-parameter non-linear regression fit to calculate DC50 and Dmax values. Data points associated with concentrations displaying a hook effect were excluded prior to DC50 and Dmax calculation.

T1 sequence (P49841 whole entry): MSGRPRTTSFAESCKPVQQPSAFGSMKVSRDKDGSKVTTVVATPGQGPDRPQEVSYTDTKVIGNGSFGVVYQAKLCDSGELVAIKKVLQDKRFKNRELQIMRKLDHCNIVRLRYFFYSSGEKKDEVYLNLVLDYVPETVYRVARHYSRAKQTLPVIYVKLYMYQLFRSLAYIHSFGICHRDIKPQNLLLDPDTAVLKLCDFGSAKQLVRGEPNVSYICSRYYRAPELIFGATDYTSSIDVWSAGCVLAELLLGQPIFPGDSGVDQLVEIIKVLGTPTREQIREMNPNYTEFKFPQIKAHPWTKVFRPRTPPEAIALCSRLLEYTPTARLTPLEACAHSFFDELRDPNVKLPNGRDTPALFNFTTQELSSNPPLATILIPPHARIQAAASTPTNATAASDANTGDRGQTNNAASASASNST

With O=C1CCC(NC(=O)c2ccc(CN3CCN(CCCCCc4cn(-c5ccc(-c6cn7nccc(C(=O)Nc8cnccc8N8CCOCC8)c7n6)cc5)nn4)CC3)cc2F)C(=O)N1 (centres unmarked) [compound 21] the “Scaled Microsomal Stability HuClint” value [1] was 27 ml/min/g liver, the “Scaled Microsomal Stability RatClint” value [2] was 2.6 ml/min/g liver and the “Scaled Microsomal Stability MuClint” value [3] was 15 ml/min/g liver.

With O=C(Nc1cnccc1N1CCOCC1)c1ccnn2cc(-c3ccc(Br)cc3)nc12 [compound 29] the “impact on GSK3β Ser9 or GSK3β Tyr216 phosphorylation prior to degradation” value [4] was “no impact observed” and the “phosphorylation of Tyr216 after 2 h” value ([4]; 1 µM, 2 h) was “some reduction in phosphorylation of Tyr216”.

For CN1C(=O)CCN(c2nn(C)c3cc(CN4CCN(Cc5ccc(-c6cn(-c7ccc(-c8cn9nccc(C(=O)Nc%10cnccc%10N%10CCOCC%10)c9n8)cc7)nn6)nc5)CC4)ccc23)C1=O [compound 27], the “impact on GSK3β Ser9 or GSK3β Tyr216 phosphorylation prior to degradation” value [4] was “no impact observed”, the “Difference, E2F8 A0AVK6 1xPhospho [S68(99.5)]” value ([5]; 27 vs DMSO, MOESM7) was -0.2137 and the “Difference, E2F8 A0AVK6 1xPhospho [S417(100)]” value ([5]; 27 vs DMSO, MOESM7) was 0.1148. For the same compound, the “Difference, GATD3B A0A0B4J2D5 1xPhospho [S98(100)]” value ([5]; 27 vs DMSO, MOESM7) was 0.02358, the “Difference, SIK1B A0A0B4J2F2 1xPhospho [S575(100)]” value ([5]; 27 vs DMSO, MOESM7) was 0.09328 and the “Difference, UBA6 A0AVT1 1xPhospho [S36(100)]” value ([5]; 27 vs DMSO, MOESM7) was 0.2252. For the same compound, the “Difference, A0JNW5 1xPhospho [S414(100)] UHRF1BP1L” value ([5]; 27 vs DMSO, MOESM8) was 0.1475, the “Difference, A0JNW5 1xPhospho [S953(99.7)] UHRF1BP1L” value ([5]; 27 vs DMSO, MOESM8) was -0.0085 and the “Difference, A0MZ66 1xPhospho [S506(100)] SHTN1” value ([5]; 27 vs DMSO, MOESM8) was 0.1099. For the same compound, the “Difference, A0MZ66 1xPhospho [S512(100)] SHTN1” value ([5]; 27 vs DMSO, MOESM8) was 0.06022, the “Difference, A0MZ66 1xPhospho [T537(100)] SHTN1” value ([5]; 27 vs DMSO, MOESM8) was -0.2879 and the “Difference, Q5PRF9 1xPhospho [S592(100)] SAMD4B” value ([5]; vs DMSO, MOESM9) was 0.05893. For the same compound, the “Difference, Q8NEM7 1xPhospho [S437(100)] SUPT20H” value ([5]; vs DMSO, MOESM9) was 0.2274, the “Difference, Q96KQ7 1xPhospho [S140(100)] EHMT2” value ([5]; vs DMSO, MOESM9) was 0.333 and the “Difference, Q15398 1xPhospho [S725(100)] DLGAP5” value ([5]; vs DMSO, MOESM9) was 0.1236. The “Difference, Q15911 1xPhospho [S426(100)] ZFHX3” value ([5]; vs DMSO, MOESM9) was 0.1806.

O=C1CCC(NC(=O)c2ccc(CN3CCN(CCCc4cn(-c5ccc(-c6cn7nccc(C(=O)Nc8cnccc8N8CCOCC8)c7n6)cc5)nn4)CC3)cn2)C(=O)N1 (centres unmarked) [compound 23] showed a Dmax ([6]; HEK293, crude mixture, stock assumed 10 mM) of 81% and a Dmax ([6]; HEK293, pure (resynthesised, HPLC purified) compound) of 73%.
